Data from PMC8342434, “Solubility of vitamin A in supercritical CO2: experimental study and thermodynamic modeling” (Scientific Reports, 2021).
Converted amounts (≈) assume the structure as drawn.

Assay: Equilibrium solubility of vitamin A in supercritical CO2 (static cell, UV-VIS)
Format: physicochemical
Experimental: Figure 1 indicates the system used for measuring the equilibrium solubility. […] Consequently, the gas was liquefied through dropping the temperature to − 20 °C so that it was prepared for pumping function by means of pressure controlling instruments (TEBCO, Iran) with an uncertainty of ± 0.1 MPa.
After CO2 pumped into the inlet solvent stream, the methanol tank (as a co-solvent in this section) and modulator valve controlled the solvent concentration. The inlet solvent concentration should be regulated. Thus, it is an adjustable factor as function of solute content based on simultaneous data from experimental setup. The pressure of the circuit was taken into the collection container through altering amount of modulator on the injection tap. This includes a certain volume of solvent (CO2 and methanol). Providing the thermal equilibrium condition with the inner part of the oven in shorter time, this equilibrium spiral pipe can be utilized for efficient mixing of CO2 and modulators. The cell was put inside carefully (FG Model, BF400E, Iran) to keep the operating temperature (with ± 0.5 K).
Roughly before the start of the extraction, 500 mg of powder Retinol were put into the static cell with the volume of 10 mL and due to the pressure drop, downward flowrate (in line with weight force of the materials) was used. Eluding physical entrainment of the unextracted Vitamin A (Rich Retinol), the tops of the pressurized equilibrium cell were connected by means of the stainless-steel disks before SC-CO2 was distributed into the cell, its pressure was enhanced up to the anticipated pressure before it is moved through the equilibrium cell at operational conditions. In the present research, 60 min was estimated to achieve the state of equilibrium (in the cell).
In fact, the final sample (in the standard state) in two phases of gas (carbon dioxide) and liquid phase (solution containing methanol and vitamin A) It was stored in accumulation glass and entered the spectrophotometer. Finally, the solvent was used to clean the circuit.
As solubility values of Vitamin A were obtained in various conditions, they were noted by absorbency mensuration’s at λmax using a model 2100 UNICO UV–VIS spectrophotometer with 1000 nm Wavelength. The equilibrium mole fraction yA and equilibrium solubility, S(g/L) in SC-CO2 over the ranges of temperature and pressure obtained from below equation[21]:1 yA=nA/nA+nC where2 nA=CAg/L×VAL/MAg/mol 3 nC=VlL×ρg/L/MCg/mol where nA and nC are sample moles of vitamin A and solvent, CA is the concentration of vitamin A g/L in the accumulation glass calculated by the curve of calibration. The volumes of the accumulation vial are denoted by VAL and VlL is the sampling circuit. Furthermore, MA and MC are the molecular weights of Vitamin A and CO2, respectively. By combining the aforementioned, the subsequent relation is achieved (Eq. (4)).4 yA=CAg/L×VSL×MCg/mol/CAg/L×VAL×MCg/mol+VlL×ρg/L×MAg/mol
In order to obtain the g/L of Vitamin A in SC-CO2 […] was used[21].5 Sg/L=CAg/L×VAL/VlL

**Q.** For `CC1=C(/C=C/C(C)=C/C=C/C(C)=C/CO)C(C)(C)CCC1` [vitamin A, Retinol], which Mole fraction (SC-CO2, 303 K, 90 bar) is on record?
**A.** 2.18e-05

**Q.** What about the Mole fraction (SC-CO2, 303 K, 115 bar) of the same molecule?
**A.** 2.92e-05

**Q.** What about the Mole fraction (SC-CO2, 303 K, 130 bar) of the same molecule?
**A.** 3.58e-05

**Q.** And the Mole fraction (SC-CO2, 303 K, 140 bar)?
**A.** 4.12e-05

**Q.** And the Mole fraction (SC-CO2, 303 K, 155 bar)?
**A.** 5.29e-05

**Q.** What about the Mole fraction (SC-CO2, 303 K, 175 bar) of the same molecule?
**A.** 6.01e-05

**Q.** What about the Mole fraction (SC-CO2, 303 K, 185 bar) of the same molecule?
**A.** 6.25e-05

**Q.** What about the Mole fraction (SC-CO2, 303 K, 195 bar) of the same molecule?
**A.** 7.21e-05

**Q.** And the Mole fraction (SC-CO2, 303 K, 220 bar)?
**A.** 7.96e-05

**Q.** What about the Mole fraction (SC-CO2, 303 K, 230 bar) of the same molecule?
**A.** 8.19e-05

**Q.** And the Mole fraction (SC-CO2, 303 K, 245 bar)?
**A.** 8.32e-05

**Q.** And the Mole fraction (SC-CO2, 313 K, 100 bar)?
**A.** 1.68e-05

**Q.** What about the Mole fraction (SC-CO2, 313 K, 120 bar) of the same molecule?
**A.** 3.62e-05

**Q.** And the Mole fraction (SC-CO2, 313 K, 130 bar)?
**A.** 5.41e-05

**Q.** And the Mole fraction (SC-CO2, 313 K, 140 bar)?
**A.** 5.25e-05

**Q.** What about the Mole fraction (SC-CO2, 313 K, 155 bar) of the same molecule?
**A.** 6.63e-05

**Q.** And the Mole fraction (SC-CO2, 313 K, 170 bar)?
**A.** 8.13e-05

**Q.** What about the Mole fraction (SC-CO2, 313 K, 200 bar) of the same molecule?
**A.** 0.000125

**Q.** What about the Mole fraction (SC-CO2, 313 K, 235 bar) of the same molecule?
**A.** 0.000138

**Q.** What about the Mole fraction (SC-CO2, 313 K, 245 bar) of the same molecule?
**A.** 0.000149

**Q.** What about the Mole fraction (SC-CO2, 323 K, 110 bar) of the same molecule?
**A.** 2.68e-05

**Q.** And the Mole fraction (SC-CO2, 323 K, 135 bar)?
**A.** 5.24e-05

**Q.** And the Mole fraction (SC-CO2, 323 K, 180 bar)?
**A.** 0.00014

**Q.** And the Mole fraction (SC-CO2, 323 K, 195 bar)?
**A.** 0.000148

**Q.** What about the Mole fraction (SC-CO2, 323 K, 205 bar) of the same molecule?
**A.** 0.00016

**Q.** And the Mole fraction (SC-CO2, 323 K, 235 bar)?
**A.** 0.000196

**Q.** And the cross-over pressure (SC-CO2, isotherms at 303, 313 and 323 K (Fig. 3))?
**A.** 110 bar

**Q.** What about the “solubility of fat-soluble vitamin A in SC-CO2” value (SC-CO2, under certain conditions) of the same molecule?
**A.** ~0.7 g/kg

**Q.** What about the solubility thermodynamic at 60 min (supercritical CO2 in a 10 mL static equilibrium cell, organic solvent or mixture, thermodynamic from solid, SC-CO2, 303–323 K, 90–235 bar, minimum at 303 K, 90 bar, maximum at 323 K, 235 bar, read-out: equilibrium solubility S of Vitamin A in SC-CO2, span over all conditions) of the same molecule?
**A.** 96 to 1040 µg/mL (≈ 335 to 3620 µM)
